In brackets after ≈: the same amount, converted by molar mass.
How the values were obtained:
[1] = assay type: physicochemical
Description: The purity profile of the isolated Compound 9 was better when performing the crystallization from water (Batch 2602 and Batch 2603; both had purities over 99.5%) compared to both crystallization from water/MTBE mixture (purity of 98.5%) and pure MTBE (Batch 2601; purity was 98.5%). The major improvement is removal of early eluting/polar impurities. The yield of the present method may be slightly lower because there will be a small loss of material in the mother liquor. Estimated solubility of Compound 9 in the mother liquor at 5-20° C. is 0.8-0.9% (Batch 2602 and Batch 2603). In the current method this would correspond to 4-5% of the material being lost. This is considered an acceptable loss because of the improved purity of Compound 9.

[2] = cited from earlier work

SMILES: CCCN1CCC(O)(c2cccc(SC)c2)CC1 [Compound 9, 4-(3-(methylthio)phenyl)-1-propylpiperidin-4-ol]
- Estimated solubility in the mother liquor [1]: 0.8-0.9%

SMILES: CSc1ccccc1 [TA, thioanisole]
- solubility (water) [2]: 500 µg/mL (≈ 4.03 mM)

SMILES: CCCCCCBr [hexyl bromide]
- solubility in water [2]: insoluble in water

— US10047049B2, “Process for preparing pridopidine” (priority 2015, dated 2018)
